Results from patent US9333189B2, “Taxane- and taxoid-protein compositions” (ONCBIOMUNE, INC., priority 2010, dated 2016).
Where two headings read alike, the source gives them in different places.

System: MCF-7 cells
Test: 3H-thymidine incorporation cell growth assay, MCF-7
Assay type: cell-based, Human
[1] = daunorubicin bound to metal-transferrin by glutaraldehyde, read-out: IC50 of Drugs bound by a Glutaraldehyde Reaction to the Surface of Transferrin (M): Daunorubicin
[2] = metal-transferrin without drug, read-out: IC50 of Drugs bound by a Glutaraldehyde Reaction to the Surface of Transferrin (M): No Drug

Protocol: Human cancer cell lines were obtained from the American Type Culture Collection (Rockville, Md.); the NCI/Adr-Res cell line came from the National Cancer Institute (Bethesda, Md.). The cancer cell lines were maintained in alpha-MEM supplemented with 10% fetal calf serum, 1 mM glutamine and 0.05 mg/mL gentamicin (Life Technologies, Inc., Frederick, Md.) in 5% CO2 at 37° C. Cells were removed from cell culture flask or plate by trypsin-EDTA (0.05% trypsin and 0.53 mM EDTA) digestion.
Cell growth was measured with a ^3[H]-thymidine incorporation assay. Cancer cells were plated into each well of a 96-well cell culture plate as noted in Table 2 (e.g., MCF-7 cells were plated at 3000 cells/well) and incubated overnight. Culture media was replaced with media containing increasing concentrations of transferrin based drugs, and the cells were incubated with these drugs for 3 days. Then, ^3[H]-thymidine (0.1 uCi/well) was added to each well for the last 16 hours of incubation. The cells were removed from the plate by trypsin-EDTA digestion and harvested onto a glass-fiber filter (Skatron basic96 Harvester, Shatron Inc., Sterling, Va.). The radioactivity incorporated into the cellular DNA was determined by liquid scintillation counting (LS 6500, Beckman Co., Fullerton, Calif.). Cell proliferation was quantitated by ^3[H]-thymidine incorporation and expressed as a percentage of the untreated control. The experiments were repeated a minimum of three times independently.

IC50 [2] [M] | Substance | IC50 [1] [M]
 | Fe-tf Daunorubicin: Daunorubicin bound by a glutaraldehyde reaction to the surface of iron-transferrin | 2.2e-07
 | Ga-tf Daunorubicin: Daunorubicin bound by a glutaraldehyde reaction to the surface of gallium-transferrin | 3.6e-07
3.4e-06 | Ga-tf: Human transferrin loaded with gallium, no drug | 
 | In-tf Daunorubicin: Daunorubicin bound by a glutaraldehyde reaction to the surface of indium-transferrin | 2.7e-08
2.7e-06 | In-tf: Indium-transferrin, no drug | 
